This data set concerns human plasma stability, LC-MS/MS, 48 h. In words: qHTS Assay to Find Inhibitors of T. brucei phosphofructokinase: Human Plasma Stability Profiling. The note with it: at 2 µM; hits give low values.

As to `O=C(Cc1ccc(Cl)c(Cl)c1)Nc1ccc(S(=O)(=O)Nc2ccon2)cc1`, the percent remaining in plasma (higher = more stable) is 100%.

These data come from PubChem BioAssay AID624144 (National Center for Advancing Translational Sciences (NCATS), 2012).
